{
  "source": "paper PMC13351859",
  "about": "(Biophysical Journal, 2026)",
  "target": "T1, LASV FD (Lassa virus fusion domain, G260-N295) (Lassa virus Josiah, UniProt P08669)",
  "T1 construct": "gene GPC",
  "T1 sequence (P08669 260-295 limits assumed)": "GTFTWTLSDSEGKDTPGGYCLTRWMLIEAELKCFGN",
  "assay": "biochemical",
  "type": "binding",
  "data": [
    {"smiles": "CCCCCCCC/C=C\\CCCCCCCC(=O)O[C@H](COC(=O)CCCCCCCCCCCCCCC)COP(=O)([O-])OCC[N+](C)(C)C", "note": "[POPC, 1-palmitoyl-2-oleoyl-glycero-3-phosphocholine]", "values": [
      {"measurement": "Kd", "value": "657 ± 17", "unit": "µM"}
    ]}
  ]
}
